Data published in patent US9604988B2, “Agent for treating or inhibiting recurrence of acute myeloid leukemia” (RIKEN, priority 2012, dated 2017).
Where a name gives a salt, the structure may show the parent alone.

Columns and labels:
[1] = molecular target: HCK (Homo sapiens, UniProt P08631); assay: HCK kinase inhibition; type: biochemical
[2] = molecular target: T1, FLT3-ITD (Homo sapiens, UniProt P36888, ITD); assay: FLT3-ITD kinase inhibition; type: biochemical
T1 sequence (P36888 27-993): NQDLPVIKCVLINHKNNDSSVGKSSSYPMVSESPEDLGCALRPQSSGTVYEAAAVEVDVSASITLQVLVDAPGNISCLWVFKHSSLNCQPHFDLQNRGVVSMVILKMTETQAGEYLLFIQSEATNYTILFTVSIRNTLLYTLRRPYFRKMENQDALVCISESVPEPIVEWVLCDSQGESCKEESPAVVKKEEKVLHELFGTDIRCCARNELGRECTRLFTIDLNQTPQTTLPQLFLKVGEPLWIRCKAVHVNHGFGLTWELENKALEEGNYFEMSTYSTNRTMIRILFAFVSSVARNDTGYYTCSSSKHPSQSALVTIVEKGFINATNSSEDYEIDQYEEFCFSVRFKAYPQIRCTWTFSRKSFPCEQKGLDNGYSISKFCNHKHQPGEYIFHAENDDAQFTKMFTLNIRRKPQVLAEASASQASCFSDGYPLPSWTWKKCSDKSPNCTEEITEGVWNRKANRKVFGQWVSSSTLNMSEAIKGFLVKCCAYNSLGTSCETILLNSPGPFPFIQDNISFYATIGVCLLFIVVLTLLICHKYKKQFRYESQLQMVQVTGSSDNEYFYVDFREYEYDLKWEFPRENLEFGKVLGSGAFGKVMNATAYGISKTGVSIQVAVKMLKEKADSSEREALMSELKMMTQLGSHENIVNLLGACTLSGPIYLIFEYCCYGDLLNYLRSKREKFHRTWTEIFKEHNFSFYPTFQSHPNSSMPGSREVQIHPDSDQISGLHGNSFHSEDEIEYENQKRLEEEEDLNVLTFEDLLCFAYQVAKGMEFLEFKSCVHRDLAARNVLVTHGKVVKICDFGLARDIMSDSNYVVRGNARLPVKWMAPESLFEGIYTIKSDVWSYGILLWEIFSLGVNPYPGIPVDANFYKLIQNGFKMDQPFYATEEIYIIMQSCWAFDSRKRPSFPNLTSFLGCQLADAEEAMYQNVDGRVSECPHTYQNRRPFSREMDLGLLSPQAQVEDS

[3] = molecular target: hERG (Homo sapiens, UniProt Q12809); assay: hERG inhibition (automated patch-clamp); type: cell-based
Chain of hERG (Q12809 whole entry): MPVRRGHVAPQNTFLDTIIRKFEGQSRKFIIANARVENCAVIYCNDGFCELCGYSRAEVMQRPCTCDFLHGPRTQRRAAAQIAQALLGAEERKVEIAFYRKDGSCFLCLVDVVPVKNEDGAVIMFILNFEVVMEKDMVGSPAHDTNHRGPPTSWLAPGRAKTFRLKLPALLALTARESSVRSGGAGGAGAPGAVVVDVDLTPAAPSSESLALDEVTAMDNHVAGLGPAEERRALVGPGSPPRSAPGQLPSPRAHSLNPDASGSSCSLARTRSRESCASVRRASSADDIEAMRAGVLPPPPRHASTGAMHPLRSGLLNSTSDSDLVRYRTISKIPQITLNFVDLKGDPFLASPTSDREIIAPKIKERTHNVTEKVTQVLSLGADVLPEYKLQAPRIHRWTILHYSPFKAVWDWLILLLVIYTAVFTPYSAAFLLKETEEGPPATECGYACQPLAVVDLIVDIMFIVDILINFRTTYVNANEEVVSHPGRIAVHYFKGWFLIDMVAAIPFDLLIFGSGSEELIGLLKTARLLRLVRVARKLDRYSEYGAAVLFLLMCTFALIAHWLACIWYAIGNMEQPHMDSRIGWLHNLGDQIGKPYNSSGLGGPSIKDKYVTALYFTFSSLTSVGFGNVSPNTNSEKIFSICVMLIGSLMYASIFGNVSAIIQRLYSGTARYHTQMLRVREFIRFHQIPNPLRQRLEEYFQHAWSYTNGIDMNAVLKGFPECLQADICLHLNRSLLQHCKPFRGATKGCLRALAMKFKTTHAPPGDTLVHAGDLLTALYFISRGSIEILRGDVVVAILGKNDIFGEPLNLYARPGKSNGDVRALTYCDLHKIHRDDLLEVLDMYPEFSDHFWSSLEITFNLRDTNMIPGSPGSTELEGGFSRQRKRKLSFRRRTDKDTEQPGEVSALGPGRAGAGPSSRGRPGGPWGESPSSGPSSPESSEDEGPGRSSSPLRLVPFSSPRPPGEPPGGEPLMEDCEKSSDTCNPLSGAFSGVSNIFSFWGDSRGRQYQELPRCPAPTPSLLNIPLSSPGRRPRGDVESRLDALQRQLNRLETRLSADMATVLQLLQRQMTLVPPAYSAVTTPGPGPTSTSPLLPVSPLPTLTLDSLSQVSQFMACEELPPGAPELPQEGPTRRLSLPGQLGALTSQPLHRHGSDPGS

Chain of HCK (P08631 whole entry): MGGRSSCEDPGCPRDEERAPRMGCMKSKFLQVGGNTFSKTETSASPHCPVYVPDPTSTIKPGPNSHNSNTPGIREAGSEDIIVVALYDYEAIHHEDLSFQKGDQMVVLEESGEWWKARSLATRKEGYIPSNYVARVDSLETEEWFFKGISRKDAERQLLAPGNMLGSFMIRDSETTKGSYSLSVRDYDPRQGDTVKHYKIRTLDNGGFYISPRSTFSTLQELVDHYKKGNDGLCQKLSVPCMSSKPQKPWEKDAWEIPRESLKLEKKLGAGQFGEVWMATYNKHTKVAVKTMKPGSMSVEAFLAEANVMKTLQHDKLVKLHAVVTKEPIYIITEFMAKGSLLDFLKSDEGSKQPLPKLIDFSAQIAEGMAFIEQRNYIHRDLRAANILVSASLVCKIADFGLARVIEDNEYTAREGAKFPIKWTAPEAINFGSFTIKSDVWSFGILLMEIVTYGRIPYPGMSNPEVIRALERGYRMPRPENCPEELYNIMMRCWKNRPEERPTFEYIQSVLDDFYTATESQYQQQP

SMILES | IC50 [1] | IC50 [2] | inhibition at 10 µM [3]
COCCN1CCN([C@H]2CC[C@H](n3cc(-c4ccc(Oc5ccccc5)cc4)c4c(N)ncnc43)CC2)CC1 [Example 40, 7-((trans)-4-(4-(2-Methoxyethyl)pyrazin-1-yl)cyclohexyl)-5-(4-phenoxyphenyl)-7H-pyrrolo[2,3-d]pyrimidin-4-amine] | 4 nM | 16 nM | 96%
Cn1ccc(CN[C@H]2CC[C@@H](n3cc(-c4ccc(Oc5ccccc5)cc4)c4c(N)ncnc43)CC2)n1 [Example 51, 7-((cis)-4-(((1-Methyl-1H-pyrazol-3-yl)methyl)amino)cyclohexyl)-5-(4-phenoxyphenyl)-7H-pyrrolo[2,3-d]pyrimidin-4-amine] | 8 nM | 34 nM | 100%
COc1cc(-c2cn([C@H]3CC[C@H](N4CCN(C)CC4)CC3)c3ncnc(N)c23)ccc1NC(=O)c1cc2ccccc2n1C [Example 27, N-(4-(4-amino-7-((trans)-4-(4-methylpiperazin-1-yl)cyclohexyl)-7H-pyrrolo[2,3-d]pyrimidin-5-yl)-2-methoxyphenyl)-1-methyl-1H-indole-2-carboxamide] | 1.6 nM | 609 nM | 39.3%
Nc1ncnc2c1c(-c1ccc(Oc3ccccc3)cc1)cn2[C@H]1CC[C@H](N2CCN(CCO)CC2)CC1 [Example 41, 2-(4-((trans)-4-(4-Amino-5-(4-phenoxyphenyl)-7H-pyrrolo[2,3-d]pyrimidin-7-yl)cyclohexyl)piperazin-1-yl)ethan-1-ol] | – | 21 nM | 93%
Cn1nccc1CN[C@H]1CC[C@H](n2cc(-c3ccc(Oc4ccccc4)cc3)c3c(N)ncnc32)CC1 [Example 50, 7-((trans)-4-(((1-Methyl-1H-pyrazol-5-yl)methyl)amino)cyclohexyl)-5-(4-phenoxyphenyl)-7H-pyrrolo[2,3-d]pyrimidin-4-amine] | 9.6 nM | 39 nM | 97%
Cn1nccc1CN[C@H]1CC[C@@H](n2cc(-c3ccc(Oc4ccccc4)cc3)c3c(N)ncnc32)CC1 [Example 49, 7-((cis)-4-(((1-Methyl-1H-pyrazol-5-yl)methyl)amino)cyclohexyl)-5-(4-phenoxyphenyl)-7H-pyrrolo[2,3-d]pyrimidin-4-amine] | 0.53 nM | 23 nM | 99%
CN1C2CCC1CC(N[C@H]1CC[C@@H](n3cc(-c4ccc(Oc5ccccc5)cc4)c4c(N)ncnc43)CC1)C2 (some centres unmarked) [Example 55, 7-((1s,4s)-4-((8-Methyl-8-azabicyclo[3.2.1]octan-3-yl)amino)cyclohexyl)-5-(4-phenoxyphenyl)-7H-pyrrolo[2,3-d]pyrimidin-4-amine] | 4.2 nM | 35.2 nM | 92%
Nc1ncnc2c1c(-c1ccc(Oc3ccccc3)cc1)cn2[C@H]1CC[C@@H](NCc2ccccn2)CC1 [Example 47, 5-(4-Phenoxyphenyl)-7-((cis)-4-((pyridin-2-ylmethyl)amino)cyclohexyl)-7H-pyrrolo[2,3-d]pyrimidin-4-amine] | 6.5 nM | 12 nM | 99%
COc1cc(-c2nn([C@H]3CC[C@H](N4CCN(C)CC4)CC3)c3ncnc(N)c23)ccc1NC(=O)c1cc2ccccc2n1C [Example 14, N-(4-(4-amino-1-((trans)-4-(4-methylpiperazin-1-yl)cyclohexyl)-1H-pyrazolo[3,4-d]pyrimidin-3-yl)-2-methoxyphenyl)-1-methyl-1H-indole-2-carboxamide] | 0.77 nM | 2750 nM | –
Nc1ncnc2c1c(-c1ccc(Oc3ccccc3)cc1)cn2[C@H]1CC[C@@H](N[C@H]2CCNC2=O)CC1 [Example 53, (S)-3-(((cis)-4-(4-amino-5-(4-phenoxyphenyl)-7H-pyrrolo[2,3-d]pyrimidin-7-yl)cyclohexyl)amino)pyrrolidin-2-one] | – | 30 nM | 97%
CN1CCN([C@H]2CC[C@H](n3cc(-c4ccc(NC(=O)c5cc6ccccc6n5C)cc4)c4c(N)ncnc43)CC2)CC1 [Example 17, N-(4-(4-amino-7-((trans)-4-(4-methylpiperazin-1-yl)cyclohexyl)-7H-pyrrolo[2,3-d]pyrimidin-5-yl)phenyl)-1-methyl-1H-indole-2-carboxamide] | 2.55 nM | 255 nM | –
Nc1ncnc2c1c(-c1ccc(Oc3ccccc3)cc1)cn2[C@H]1CC[C@@H](NC(=O)c2ccncc2)CC1 [Example 12, N-((cis)-4-(4-5-(4-Phenoxyphenyl)-7H-pyrrolo[2,3-d]pyrimidin-7-yl)cyclohexyl)isonicotinamide] | 4 nM | 44 nM | –
Nc1ncnc2c1c(-c1ccc(Oc3ccccc3)cc1)cn2[C@H]1CC[C@H](NCc2ccncc2)CC1 [Example 44, 5-(4-phenoxyphenyl)-7-((trans)-4-((pyridin-4-ylmethyl)amino)cyclohexyl)-7H-pyrrolo[2,3-d]pyrimidin-4-amine] | – | 15 nM | 93%
Nc1ncnc2c1c(-c1ccc(Oc3ccccc3)cc1)nn2[C@H]1CC[C@H](NC(=O)c2cccnc2)CC1 [Example 22, N-((trans)-4-(4-amino-3-(4-phenoxyphenyl)-1H-pyrazolo[3,4-d]pyrimidin-1-yl)cyclohexyl)nicotinamide] | 20 nM | 190 nM | 50%
COc1cc(-c2nn([C@H]3CC[C@H](N4CCn5c(C)nnc5C4)CC3)c3ncnc(N)c23)ccc1NC(=O)c1cc2ccccc2n1C [Example 29, N-(4-(4-amino-1-((trans)-4-(3-methyl-5,6-dihydro[1,2,4]triazolo[4,3-a]pyrazin-7(8H)-yl)cyclohexyl)-1H-pyrazolo[3,4-d]pyrimidin-3-yl)-2-methoxyphenyl)-1-methyl-1H-indole-2-carboxamide] | 1.8 nM | 1340 nM | 17.1%
COc1cc(-c2cn([C@H]3CC[C@@H](N4CCn5nccc5C4)CC3)c3ncnc(N)c23)ccc1NC(=O)c1cc2ccccc2n1C [Example 38, N-(4-(4-amino-7-((cis)-4-(6,7-dihydropyrazolo[1,5-a]pyrazin-5(4H)-yl)cyclohexyl)-7H-pyrrolo[2,3-d]pyrimidin-5-yl)-2-methoxyphenyl)-1-methyl-1H-indole-2-carboxamide] | 2.8 nM | 6580 nM | –
Nc1ncnc2c1c(-c1ccc(Oc3ccccc3)cc1)cn2[C@H]1CC[C@H](NCC(=O)O)CC1 [Example 3, 2-(((trans)-4-(4-Amino-5-(4-phenoxyphenyl)-7H-pyrrolo[2,3-d]pyrimidin-7-yl)cyclohexyl)amino)acetic acid.trihydrochloride] | 4.2 nM | 24 nM | –
Nc1ncnc2c1c(-c1ccc(Oc3ccccc3)cc1)nn2[C@H]1CC[C@H](NC(=O)c2ccccn2)CC1 [Example 23, N-((trans)-4-(4-amino-3-(4-phenoxyphenyl)-1H-pyrazolo[3,4-d]pyrimidin-1-yl)cyclohexyl)picolinamide] | 12 nM | 548 nM | –
COc1cc(-c2cn([C@H]3CC[C@@H](N4CCn5nc(C)cc5C4)CC3)c3ncnc(N)c23)ccc1NC(=O)c1cc2ccccc2n1C [Example 37, N-(4-(4-amino-7-((cis)-4-(2-methyl-6,7-dihydropyrazolo[1,5-a]pyrazin-5(4H)-yl)cyclohexyl)-7H-pyrrolo[2,3-d]pyrimidin-5-yl)-2-methoxyphenyl)-1-methyl-1H-indole-2-carboxamide] | 7.7 nM | 3330 nM | –
CC(C)(C)N1CCN([C@H]2CC[C@H](n3cc(-c4ccc(Oc5ccccc5)cc4)c4c(N)ncnc43)CC2)CC1 [Example 13, 7-((trans)-4-(4-(tert-Butyl)piperazin-1-yl)cyclohexyl)-5-(4-phenoxyphenyl)-7H-pyrrolo[2,3-d]pyrimidin-4-amine] | 8 nM | 17 nM | –
CC(C)N1CCN([C@H]2CC[C@H](n3cc(-c4ccc(Oc5ccccc5)cc4)c4c(N)ncnc43)CC2)CC1 [Example 42, 7-((trans)-4-(4-Isopropylpiperazin-1-yl)cyclohexyl)-5-(4-phenoxyphenyl)-7H-pyrrolo[2,3-d]pyrimidin-4-amine] | – | 22 nM | 88%
Nc1ncnc2c1c(-c1ccc(Oc3ccccc3)cc1)cn2[C@H]1CC[C@@H](NCC(=O)O)CC1 [Example 9, 2-(((cis)-4-(4-Amino-5-(4-phenoxyphenyl)-7H-pyrrolo[2,3-d]pyrimidin-7-yl)cyclohexyl)amino)acetic acid.trihydrochloride] | 16 nM | 23 nM | –
